Results published in patent publication US20230172837A1, “AGENT FOR PREVENTING AND/OR IMPROVING PHOTOAGING AND/OR DERMAL PIGMENTATION, COSMETIC METHOD USING SAME, AND COSMETIC DEVICE TO BE APPLIED IN SAID METHOD” (SHISEIDO COMPANY, LTD., priority 2020, published 2023).

System: M0 macrophages differentiated from THP-1
Test: Intracellular activity of M0 macrophages, flux analyzer (OCR)
Assay type: cell-based, human
Conditions: M0, 3 ppm, 48 hours, versus solvent (DMSO) alone
Protocol: M0 macrophages, M1 macrophages and M2 macrophages induced to differentiate from THP-1 by the same method as Experiment 2 were measured for intracellular activity using an XFe24 (24-well) extracellular flux analyzer by Agilent Technologies (previously Seahorse Bioscience) (hereunder referred to as “flux analyzer”), with reference to Nat Immunol, 2014. 15(9): pp 846-855 (NPL 14). A flux analyzer is a device that allows non-invasive, highly sensitive periodic measurement of cells to determine the state of glycolysis as the main cellular energy metabolism pathway, and aerobic respiration by mitochondria.
Using a flux analyzer, oligomycin (ATP synthase inhibitor) (“Oligo”), FCCP (uncoupling agent) and rotenone (mitochondrial complex I inhibitor)+antimycin A (mitochondria complex III inhibitor) (“Rot+Ant”) were added at predetermined times and the oxygen consumption rate (OCR) and extracellular acidification rate (ECAR) were measured. The ECAR and OCR values used were the basal OCR and basal ECAR values at 18.3 minutes after measurement. Each measured value was calibrated by the number of cells determined by counting the cell nuclei stained by addition of Hoechst.
M0, M1 and M2 differentiated from THP-1 were prepared by the same method as Experiment 2, and hakushinin extract (hakushinin hydrolysate) prepared by the same method as Experiment 13 was added to the M0 (at 0.3 ppm, 1 ppm or 3 ppm). At 48 hours after incubation, the oxygen consumption rate (OCR) was measured using a flux analyzer. Each measured value was calibrated by the number of cells determined by counting the cell nuclei stained by addition of Hoechst (FIG. 21).
M0 and M2 differentiated from THP-1 were prepared by the same method as Experiment 2, linoleic acid, linolenic acid or juniperonic acid (3 ppm) was added to M0, and after 48 hours the oxygen consumption rate (OCR) was measured with a flux analyzer by the same method as Experiment 15. Each measured value was calibrated by the number of cells determined by counting the cell nuclei stained by addition of Hoechst.
The Basal OCR and mitochondrial respiration values for M0 were examined with the incubation time changed to 24 hours after addition of the hakushinin extract or unsaturated fatty acid. The experiment method was carried out by the same method as described in Experiment 17, except that the incubation time was changed to 24 hours after addition of the hakushinin extract or unsaturated fatty acid.

CC/C=C\C/C=C\C/C=C\CCCC/C=C\CCCC(=O)O [juniperonic acid]
Basal OCR: not significantly different
mitochondrial respiration: not significantly different

CCCCC/C=C\C/C=C\CCCCCCCC(=O)O [linoleic acid]
Basal OCR: not significantly different
mitochondrial respiration: not significantly different
